Earlier results in US11396520B2, “Synthesis of the organoarsenical antibiotic arsinothricin and derivatives thereof” (THE FLORIDA INTERNATIONAL UNIVERSITY BOARD OF TRUSTEES, priority 2020, dated 2022).

Key:
[1] = test system: Gram-positive and Gram-negative bacteria; conditions: stated in words, no test described
[2] = test system: glutamine synthetase; conditions: stated in words, no test described
[3] = test system: carbapenem-resistant Enterobacter cloacae (CRE); conditions: WHO ESKAPE pathogen CRE; stated in words, no test described
[4] = test system: Mycobacterium bovis BCG; conditions: M. bovis BCG; stated in words, no test described

SMILES: NC(CC[AsH](=O)CO)C(=O)O (stereo not shown) [AST, 2-amino-4-(hydroxymethylarsinoyl)-butanoic acid]
- antibiotic activity [1]: effective against both Gram-positive and Gram-negative bacteria
- inhibition of glutamine synthetase [2]: inhibits glutamine synthetase
- antibiotic activity [3]: effective against
- antibiotic activity [4]: effective against
